From patent US20090054403A1, “Treatment of Post-Traumatic Stress Disorder” (priority 2007, published 2009) come the findings set out here.

This test deals with tissue noradrenaline and dopamine content. The test can be described thus: Tissue catecholamines in SHR after three oral doses 12 h apart. In kind it is in vivo, spontaneously hypertensive rats (SHR). How it is done: The activity of nepicastat at twelve selected enzymes and receptors was determined using established assays. Details of individual receptor radioligand binding assays can be found in Wong et al (1993). Binding data were analyzed by iterative curve-fitting to a four parameter logistic equation. Ki values were calculated from IC50 values using the Cheng-Prusoff equation. Enzyme inhibitory activity was expressed as IC50 (concentration required to produce 50% inhibition of enzyme activity). Male SHRs (15-16 weeks old, Charles River, Wilmington, Mass., USA) were used in the study. On the day of the study, animals were weighed and randomly assigned to be dosed with either vehicle (control) or the appropriate dose of nepicastat (3, 10, 30 or 100 mg.kg^−1, po) or (R)-5-Aminomethyl-1-(5,7-difluoro-1,2,3,4-tetrahydronaphth-2-yl)-2,3-dihydro-2-thioxo-1H-imidazole hydrochloride (30 mg.kg^−1, po) three consecutive times, twelve hours apart. At six hours after the third dose, the rats were anaesthetized with halothane, decapitated and tissues (cerebral cortex, mesenteric artery and left ventricle) were rapidly harvested, weighed, placed in iced perchloric acid (0.4 M), frozen in liquid nitrogen and stored at −70° C. until subsequent analysis. To quantify noradrenaline and dopamine concentrations, tissues were homogenized by brief sonication and centrifuged at 13,000 rpm for 30 minutes at 4° C. The supernatant, spiked with 3,4-dihydroxybenzylamine (internal standard), was assayed for noradrenaline and dopamine by HPLC using electrochemical detection.
In vivo biochemical studies in spontaneously hypertensive rats (SHR) and normal dogs. Mate SHR (15-16 week old, Charles River, Wilmington, Mass.) were used in the study. On the day of the study, the animals were weighed and randomly assigned to receive either placebo (vehicle) or the appropriate dose of 2a, 2b or 1. Each rat was dosed orally three times, 12 h apart, beginning in the morning. At 6 h after the third dose, the rats were anesthetized with halothane, decapitated, and the tissues (cerebral cortex, mesenteric artery and left ventricle) were rapidly harvested, weighed, placed in iced 0.4 M perchloric acid, frozen in liquid nitrogen and stored at −70° C. until analysis. Tissue NE and DA concentrations were assayed by HPLC using electrochemical detection.
Fifteen to sixteen week old male spontaneously hypertensive rats (SHR) (Charles River Labs) were allowed food and water ad libitum. Animals were weighed and randomly assigned to one of the following treatment groups: 1) distilled water vehicle (dH2O), or nepicastat at 3, 10, 30, and 100 mg/kg, 2) (R)-5-Aminomethyl-1-(5,7-difluoro-1,2,3,4-tetrahydronaphth-2-yl)-2,3-dihydro-2-thioxo-1H-imidazole hydrochloride at 30 mg/kg in distilled water, or 3) PEG 400:dH2O vehicle or RS-2643 1-000 at 30 mg/kg. Each rat was dosed orally (p.o., using a gavage needle) three times 12 hours apart, beginning in the morning. At six hours after the third dose rats were anesthetized with halothane, decapitated, and the cortex, mesenteric artery, and left ventricle were rapidly harvested, weighed, placed in iced 0.4 M perchioric acid, frozen in liquid nitrogen, and stored at −70° C. Tissue dopamine and norepinephrine concentrations were assayed by high performance liquid chromatography and electrochemical detection.
Four series of statistical analyses were performed. The first series compared the rats treated with various doses of nepicastat, and (R)-5-Aminomethyl-1-(5,7-difluoro-1,2,3,4-tetrahydronaphth-2-yl)-2,3-dihydro-2-thioxo-1H-imidazole hydrochloride at 30 mg/kg to the vehicle control animals. A nonparametric one-way analysis of variance (ANOVA) with factor Dose and blocking factor Day was performed for each tissue and strain separately. Overall results are reported. Pairwise analysis between treated and controls at each dose were carried out using Dunnett's test to control the experiment-wise error rate. […]

Setting [1] is: 100 mg/kg po x3, 6 h after third dose.
Setting [2] is: conclusion over rat dose-response studies.
Setting [3] is: doses of 3, 10, 30 and 100 mg/kg.

As to `Cl.NCc1c[nH]c(=S)n1[C@H]1CCc2c(F)cc(F)cc2C1` [nepicastat, (S)-5-Aminomethyl-1-(5,7-difluoro-1,2,3,4-tetrahydronaphth-2-yl)-2,3-dihydro-2-thioxo-1H-imidazole hydrochloride], for the setting “30 mg/kg po x3”, the “increase in DA/NE ratio, cerebral cortex” value was 1.5 fold; the “increase in DA/NE ratio, left ventricle” value amounted to 7.5 fold; the “increase in DA/NE ratio, mesenteric artery” value was 8.3 fold. For the setting “100 mg/kg po x3”, the “maximal increase in DA/NE ratio, artery (mesenteric)” value was found to be 14 fold; the “maximal increase in DA/NE ratio, cerebral cortex” value is 3.2 fold; the “maximal increase in DA/NE ratio, left ventricle” value worked out at 11 fold. Besides, under setting [1], the “decrease in noradrenaline, cerebral cortex” value amounted to 42%; the “decrease in noradrenaline, left ventricle” value is given as 35%; the “decrease in noradrenaline, mesenteric artery” value was 47%; the “increase in dopamine, cerebral cortex” value was 86%. Moreover, under setting [1], the “increase in dopamine, left ventricle” value is given as 800% and the “increase in dopamine, mesenteric artery” value was 820%. Where the note is “10, 30 and 100 mg/kg”, the “norepinephrine concentration vs vehicle, mesenteric artery” value was “not significantly less (p>0.05) than vehicle”. Moreover, the “dopamine/norepinephrine ratio vs vehicle, mesenteric artery” value (all doses (3-100 mg/kg)) was “significantly (p<0.05) greater than vehicle”. Besides, under “all three tissues at 30 mg/kg”, the “in vivo potency compared with the R enantiomer” value is recorded as “more potent than the R enantiomer”. Besides, under setting [2], the “dose inhibiting DBH in the cerebral cortex of rats” value was in the range of 60 to 100 mg/kg/day; the “dose inhibiting DBH in the left ventricle and mesenteric artery of rats” value was in the range of 1 to 6 mg/kg/day. Under setting [3], the “dopamine concentration vs vehicle, left ventricle” value is “significantly (p<0.05) greater than vehicle”; the “dopamine concentration vs vehicle, mesenteric artery” value is “significantly (p<0.05) greater than vehicle”; the “dopamine/norepinephrine ratio vs vehicle, left ventricle” value is given as “significantly (p<0.05) greater than vehicle”. Moreover, where the note is “doses of 10, 30 and 100 mg/kg”, the “norepinephrine concentration vs vehicle, left ventricle” value was “significantly (p<0.05) lower than vehicle”. Also, where the note is “doses of 30 and 100 mg/kg”, the “dopamine concentration vs vehicle, cerebral cortex” value is on record as “significantly (p<0.05) greater”; the “dopamine/norepinephrine ratio vs vehicle, cerebral cortex” value is recorded as “significantly (p<0.05) greater”; the “norepinephrine concentration vs vehicle, cerebral cortex” value is given as “significantly (p<0.05) lower”. Also, the “doses at which catecholamine changes attained statistical significance (p<0.05)” value (mesenteric artery and left ventricle) is greater than 3 mg/kg. For the setting “three doses at 30 mg/kg over 24 hours”, the “in vivo effectiveness compared with SKF 102698” value is “more effective than SKF 102698 in the mesenteric artery and left ventricle, but less effective in the cerebral cortex”.
For `Fc1cc(F)cc(Cn2cc[nH]c2=S)c1` [SKF 102698, reference compound], where the note is “30 mg/kg po x3”, the “dopamine vs vehicle, cerebral cortex” value is given as “significantly greater (p<0.01) than vehicle”; the “dopamine vs vehicle, left ventricle” value was “significantly greater (p<0.01) than vehicle”; the “dopamine vs vehicle, mesenteric artery” value is listed as “significantly greater than vehicle”; the “dopamine/norepinephrine ratio vs vehicle, cerebral cortex” value is listed as “significantly (p<0.01) greater than vehicle”. Besides, where the note is “30 mg/kg po x3”, the “dopamine/norepinephrine ratio vs vehicle, left ventricle” value is on record as “significantly (p<0.05) greater than vehicle”; the “dopamine/norepinephrine ratio vs vehicle, mesenteric artery” value is “significantly greater than vehicle”; the “increase in DA/NE ratio, cerebral cortex” value was 2.7 fold; the “increase in DA/NE ratio, left ventricle” value is given as 3.5 fold. Besides, under “30 mg/kg po x3”, the “increase in DA/NE ratio, mesenteric artery” value was 5.5 fold; the “norepinephrine vs vehicle, cerebral cortex” value was “significantly lower than vehicle”; the “norepinephrine vs vehicle, left ventricle” value was “not different from vehicle”; the “norepinephrine vs vehicle, mesenteric artery” value is “significantly lower than vehicle”.
Take `Cl.NCc1c[nH]c(=S)n1[C@@H]1CCc2c(F)cc(F)cc2C1` [R-enantiomer, (R)-5-Aminomethyl-1-(5,7-difluoro-1,2,3,4-tetrahydronaphth-2-yl)-2,3-dihydro-2-thioxo-1H-imidazole hydrochloride]: for the setting “30 mg/kg po x3”, the “dopamine vs vehicle, cerebral cortex” value is recorded as “significant increase”; the “dopamine vs vehicle, left ventricle” value was “significant increase”; the “dopamine vs vehicle, mesenteric artery” value is recorded as “significant increase”; the “dopamine/norepinephrine ratio vs vehicle, cerebral cortex” value is on record as “no effect”. In addition, where the note is “30 mg/kg po x3”, the “dopamine/norepinephrine ratio vs vehicle, left ventricle” value is “significant increase”; the “dopamine/norepinephrine ratio vs vehicle, mesenteric artery” value is given as “significant increase”; the “increase in DA/NE ratio, cerebral cortex” value is 1.1 fold; the “increase in DA/NE ratio, left ventricle” value worked out at 3.5 fold. Also, where the note is “30 mg/kg po x3”, the “increase in DA/NE ratio, mesenteric artery” value is on record as 2.6 fold; the “norepinephrine vs vehicle, cerebral cortex” value is “significant increase”; the “norepinephrine vs vehicle, left ventricle” value was “did not significantly lower”; the “norepinephrine vs vehicle, mesenteric artery” value is listed as “did not significantly lower”.
